Assay results as given in ChEMBL document CHEMBL3882245, “Novel aminopyridine derivatives having aurora a selective inhibitory action” (2008).

Experiment: Cytotoxicity against human HeLaS3 cells assessed as cell growth inhibition at 0.3 nM after 3 days by WST-8 assay
Assay type: functional
Settings: HeLa S3, 72 h, read-out: GI

**Q.** For `CC(=O)O[C@@]12CO[C@@H]1C[C@H](O)[C@@]1(C)C(=O)[C@H](O)C3=C(C)[C@@H](OC(=O)[C@H](O)[C@@H](NC(=O)OC(C)(C)C)c4ccccc4)C[C@@](O)([C@@H](OC(=O)c4ccccc4)[C@H]21)C3(C)C` [DOCETAXEL ANHYDROUS], which inhibition of growth at 0.0003 µM is on record?
**A.** The inhibition of growth at 0.0003 µM was 25.6 to 53.4%.
